Laboratory results as given in patent publication US6756373B1, “Pharmaceutically active compounds” (Pfizer Inc., priority 1999, dated 2004).

test system: not given; test: not given; conditions: not given

melting point | SMILES
132 to 134 °C | CCCOc1ncc(C#C[Si](C)(C)C)cc1-c1nc2c(CC)nn(CCN3CCOCC3)c2c(=O)[nH]1
174 to 176 °C | CCCOc1ncc(C#N)cc1-c1nc2c(CCC)nn(C)c2c(=O)[nH]1 [Example 70, 5-(1-Methyl-7-oxo-3-propyl-6,7-dihydro-1-pyrazolo[4,3-d]pyrimidin-5-yl)-6-propoxynicotinonitrile]
212 to 214 °C | CCCc1nn(C)c2c(=O)[nH]c(-c3cc([N+](=O)[O-])cnc3OC3CCC3)nc12 [Example 88, 5-[2-(Cyclobutyloxy)-5-nitro-3-pyridinyl]-1-methyl-3-propyl-1,6-dihydro-7H-pyrazolo[4,3-d]pyrimidin-7-one]
279 to 281 °C | CCCc1nn(C)c2c(=O)[nH]c(-c3cc(NC(C)=O)cnc3OC3CCC3)nc12 [Example 89, N-[6-(Cyclobutyloxy)-5-(1-methyl-7-oxo-3-propyl-6,7-dihydro-1H-pyrazolo[4,3-d]pyrimidin-5-yl)-3-pyridinyl]acetamide]
185 to 185.5 °C | CCCc1nn(C)c2c(=O)[nH]c(-c3cc(N)cnc3OC3CCC3)nc12 [Example 90, 5-[5-Amino-2-(cyclobutyloxy)-3-pyridinyl]-1-methyl-3-propyl-1,6-dihydro-7H-pyrazolo[4,3-d]pyrimidin-7-one]
219 to 220 °C | CCCOc1ncc(NC(=O)N(C)C)cc1-c1nc2c(CCC)nn(C)c2c(=O)[nH]1 [Example 91, N′-[6-(Propoxy)-5-(1-methyl-7-oxo-3-propyl-6,7-dihydro-1H-pyrazolo[4,3-d]pyrimidin-5-yl)-3-pyridinyl]-N,N-dimethylurea]
252 to 253 °C | CCCOc1ncc(NC(C)=O)cc1-c1nc2c(CCC)nn(C)c2c(=O)[nH]1 [Example 92, N-[6-(Propoxy)-5-(1-methyl-7-oxo-3-propyl-6,7-dihydro-1H-pyrazolo[4,3-d]pyrimidin-5-yl)-3-pyridinyl]acetamide]
162 to 162.5 °C | CCCOc1ncc(N(C)C)cc1-c1nc2c(CCC)nn(C)c2c(=O)[nH]1 [Example 93, 5-[5-(Dimethylamino)-2-propoxy-3-pyridinyl]-1-methyl-3-propyl-1,6-dihydro-7H-pyrazolo[4,3-d]pyrimidin-7-one]
210 to 211 °C | CCCOC(=O)Nc1cnc(OCCC)c(-c2nc3c(CCC)nn(C)c3c(=O)[nH]2)c1 [Example 94, Propyl 5-(1-Methyl-7-oxo-3-propyl-6,7-dihydro-1H-pyrazolo[4,3-d]pyrimidin-5-yl)-6-propoxy-3-pyridinylcarbamate]
175 to 177 °C | CCCOc1ncc(I)cc1-c1nc2c(CC)nn(CCN3CCOCC3)c2c(=O)[nH]1 [Example 95, 3-Ethyl-5-(5-iodo-2-propoxy-3-pyridinyl)-1-[2-(4-morpholinyl)ethyl]-1,6-dihydro-7H-pyrazolo[4,3-d]pyrimidin-7-one]
228.9 to 233.8 °C | CCCOc1ncc(I)cc1-c1nc2c(CC)n(Cc3ccccn3)nc2c(=O)[nH]1 [Example 98, 5-(2-Propoxy-5-iodo-3-pyridinyl)-3-ethyl-2-(2-pyridinylmethyl)-2,6-dihydro-7H-pyrazolo[4,3-d]pyrimidin-7-one]
137 to 139 °C | C#Cc1cnc(OCCC)c(-c2nc3c(CC)nn(CCN4CCOCC4)c3c(=O)[nH]2)c1 [Example 107, 3-Ethyl-5-(5-ethynyl-2-propoxy-3-pyridinyl)-1-[2-(4-morpholinyl)ethyl]-1,6-dihydro-7H-pyrazolo[4,3-d]pyrimidin-7-one]
221 °C | C#Cc1cnc(OCCC)c(-c2nc3c(CC)n(C4CCN(C(=O)OC(C)(C)C)CC4)nc3c(=O)[nH]2)c1 [Example 112, tert-Butyl 4-[3-Ethyl-5-(5-ethynyl-2-propoxy-3-pyridinyl)-7-oxo-6,7-dihydro-2H-pyrazolo[4,3-d]pyrimidin-2-yl]-1-piperidinecarboxylate]
140 to 143 °C | CCCOc1ncc(C(C)=O)cc1-c1nc2c(CC)nn(CCN3CCOCC3)c2c(=O)[nH]1 [Example 113, 5-(5-Acetyl-2-propoxy-3-pyridinyl)-3-ethyl-1-[2-(4-morpholinyl)ethyl]-1,6-dihydro-7H-pyrazolo[4,3-d]pyrimidin-7-one]
128.5 to 130 °C | CCCOc1ncc(C(C)=O)cc1-c1nc2c(CC)n(C3CNC3)nc2c(=O)[nH]1 [Example 117, 5-(5-Acetyl-2-propoxy-3-pyridinyl)-2-(3-azetidinyl)-3-ethyl-2,6-dihydro-7H-pyrazolo[4,3-d]pyrimidin-7-one]
175.9 to 177 °C | CCCOc1ncc(C(C)=O)cc1-c1nc2c(CC)n(C3CN(C)C3)nc2c(=O)[nH]1 [Example 120, 5-(5-Acetyl-2-propoxy-3-pyridinyl)-3-ethyl-2-(1-methyl-3-azetidinyl)-2,6-dihydro-7H-pyrazolo[4,3-d]pyrimidin-7-one]
229.3 to 230.1 °C | CCCOc1ncc(C(C)=O)cc1-c1nc2c(CC)n(C3CN(C(C)=O)C3)nc2c(=O)[nH]1 [Example 121, 2-(1-Acetyl-3-azetidinyl)-5-(5-acetyl-2-propoxy-3-pyridinyl)-3-ethyl-2,6-dihydro-7H-pyrazolo[4,3-d]pyrimidin-7-one]
213 to 214 °C | CCCOc1ncc(C(C)=O)cc1-c1nc2c(CC)n(C3CCN(C(C)=O)CC3)nc2c(=O)[nH]1 [Example 122, 2-(1-acetyl-4-piperidinyl)-5-(5-acetyl-2-propoxy-3-pyridinyl)-3-ethyl-2,6-dihydro-7H-pyrazolo[4,3-d]pyrimidin-7-one]
176.5 to 177.7 °C | CCCOc1ncc(C(C)=O)cc1-c1nc2c(CC)n(C3CN(C(C)CC)C3)nc2c(=O)[nH]1 (stereo not shown) [Example 123, 5-(5-Acetyl-2-propoxy-3-pyridinyl)-2-(1-sec-butyl-3-azetidinyl)-3-ethyl-2,6-dihydro-7H-pyrazolo[4,3-d]pyrimidin-7-one]
162.8 to 163.6 °C | CCCOc1ncc(C(C)=O)cc1-c1nc2c(CC)n(C3CN(C(C)C)C3)nc2c(=O)[nH]1 [Example 124, 5-(5-Acetyl-2-propoxy-3-pyridinyl)-3-ethyl-2-(1-isopropyl-3-azetidinyl)-2,6-dihydro-7H-pyrazolo[4,3-d]pyrimidin-7-one]
219 to 220 °C | CCCOc1ncc(C(C)=O)cc1-c1nc2c(CC)n(C3CCN(C)CC3)nc2c(=O)[nH]1 [Example 125, 5-(5-Acetyl-2-propoxy-3-pyridinyl)-3-ethyl-2-(1-methyl-4-piperidinyl)-2,6-dihydro-7H-pyrazolo[4,3-d]pyrimidin-7-one]
184 to 185 °C | CCCCOc1ncc(C(C)=O)cc1-c1nc2c(CC)n(CC3CC3)nc2c(=O)[nH]1 [Example 127]
200 to 201 °C | CCOc1ncc(C(C)=O)cc1-c1nc2c(CC)n(CC3CC3)nc2c(=O)[nH]1 [Example 128]
217.9 to 218.7 °C | CCOc1ncc(C(C)=O)cc1-c1nc2c(CC)nn(Cc3nccn3C)c2c(=O)[nH]1 [Example 138, 5-(5-Acetyl-2-ethoxy-3-pyridinyl)-3-ethyl-1-[(1-methyl-1H-imidazol-2-yl)methyl]-1,6-dihydro-7H -pyrazolo[4,3-d]pyrimidin-7-one]

SMILES | melting point
CCCCOc1ncc(-c2ccco2)cc1-c1nc2c(CC)n(CCOC)nc2c(=O)[nH]1 [Example 12, 5-[2-Butoxy-5-(2-furyl)-3-pyridinyl]-3-ethyl-2-(2-methoxyethyl)-2,6-dihydro-7H-pyrazolo[4,3-d]pyrimidin-7-one] | 154 to 155 °C
CCCCOc1ncc(C(C)=O)cc1-c1nc2c(CC)n(C3CCN(C(=O)OC(C)(C)C)CC3)nc2c(=O)[nH]1 [Example 129, tert-Butyl 4-[5-(5-Acetyl-2-butoxy-3-pyridinyl)-3-ethyl-7-oxo-6,7-dihydro-2H-pyrazolo[4,3-d]pyrimidin-2-yl]-1-piperidinecarboxylate] | 194 to 195 °C
CCCCOc1ncc(C(C)=O)cc1-c1nc2c(CC)n(C3CCN(C(C)=O)CC3)nc2c(=O)[nH]1 [Example 131, 5-(5-Acetyl-2-butoxy-3-pyridinyl)-2-(1-acetyl-4-piperidinyl)-3-ethyl-2,6-dihydro-7H-pyrazolo[4,3-d]pyrimidin-7-one] | 156 to 157 °C
CCc1c2nc(-c3cc(C(C)=O)cnc3OCC(C)C)[nH]c(=O)c2nn1C1CCN(C)CC1 [Example 135, 5-(5-Acetyl-2-isobutoxy-3-pyridinyl)-3-ethyl-2-(1-methyl-4-piperidinyl)-2,6-dihydro-7H-pyrazolo[4,3-d]pyrimidin-7-one] | 195 to 196 °C

biological target: cGMP PDE5 (UniProt O76074); test: Phosphodiesterase (PDE) inhibitory activity: in vitro inhibition of cGMP PDE5 (batch method or scintillation proximity assay); conditions: in vitro activity as inhibitors of cGMP PDE5
Method: Phosphodiesterases 7-11 were generated from full length human recombinant clones transfected into SF9 cells.
In summary, the effect of PDE inhibitors was investigated by assaying a fixed amount of enzyme in the presence of varying inhibitor concentrations and low substrate, (cGMP or cAMP in a 3:1 ratio unlabelled to [^3H]-labeled at a conc ˜1/3 Km) such that IC50≅Ki. The final assay volume was made up to 100 μl with assay buffer [20 mM Tris-HCl pH 7.4, 5 mM MgCl2, 1 mg/ml bovine serum albumin].

SMILES | IC50
CCCCOc1ncc(C(=O)N(C)OC)cc1-c1nc2c(CC)n(CCOC)nc2c(=O)[nH]1 [Example 5, 6-Butoxy-5-[3-ethyl-2-(2-methoxyethyl)-7-oxo-6,7-dihydro-2H-pyrazolo[4,3-d]pyrimidin-5-yl]-N-methoxy-N-methylnicotinamide] | 8.5 nM
CCCCOc1ncc(C(C)=O)cc1-c1nc2c(CC)n(CCOC)nc2c(=O)[nH]1 [Example 16, 5-(5-Acetyl-2-butoxy-3-pyridinyl)-3-ethyl-2-(2-methoxyethyl)-2,6-dihydro-7H-pyrazolo[4,3-d]pyrimidin-7-one] | 6.55 nM
CCCCOc1ncc(C(=O)CN2CCOCC2)cc1-c1nc2c(CC)n(CCOC)nc2c(=O)[nH]1 [Example 34, 5-[2-Butoxy-5-(4-morpholinylacetyl)-3-pyridinyl]-3-ethyl-2-(2-methoxyethyl)-2,6-dihydro-7H-pyrazolo[4,3-d]pyrimidin-7-one] | 30.7 nM
CCCCOc1ncc(C(C)=O)cc1-c1nc2c(CC)n(CCN3CCOCC3)nc2c(=O)[nH]1 [Example 48] | 2.45 nM
CCCCOc1ncc(C(C)=O)cc1-c1nc2c(CC)n(C3CCNCC3)nc2c(=O)[nH]1 [Example 49, 5-(5-Acetyl-2-butoxy-3-pyridinyl)-3-ethyl-2-(4-piperidinyl)-2,6-dihydro-7H-pyrazolo[4,3-d]pyrimidin-7-one] | 18 nM
CCOc1ncc(C(C)=O)cc1-c1nc2c(-c3ccc(N(C)C)nc3)n(C)nc2c(=O)[nH]1 [Example 59, 5-(5-Acetyl-2-ethoxy-3-pyridinyl)-3-[6-(dimethylamino)-3-pyridinyl]-2-methyl-2,6-dihydro-7H-pyrazolo[4,3-d]pyrimidin-7-one] | 1.41 nM
